Like-named read-outs stand apart in the source and are kept apart here. Blank lines part the entries; values can stand above or below the compound they belong to.
Assays:
[1] = system: R2/VC cells (vector control R2 CHO); assay: Growth inhibition of vector control R2 CHO cells (Cell TiterBlue, 96 h); assay type: cell-based, Chinese hamster; conditions: Cricetulus griseus, read-out: Growth inhibition 50% inhibitory concentration, R2/VC
[2] = system: KB human tumor cells (hRFC/FRα); assay: Growth inhibition of KB human tumor cells (Cell Titer-blue cytotoxicity screen), with or without folic acid; assay type: cell-based
[3] = target: T1, purified recombinant mouse GARFTase (Mus musculus, UniProt Q64737); assay: In vitro GARFTase inhibition assay; assay type: biochemical; conditions: purified recombinant mouse GARFTase; mean IC50, SEM in parentheses
T1 sequence (Q64737 2-1010 limits assumed): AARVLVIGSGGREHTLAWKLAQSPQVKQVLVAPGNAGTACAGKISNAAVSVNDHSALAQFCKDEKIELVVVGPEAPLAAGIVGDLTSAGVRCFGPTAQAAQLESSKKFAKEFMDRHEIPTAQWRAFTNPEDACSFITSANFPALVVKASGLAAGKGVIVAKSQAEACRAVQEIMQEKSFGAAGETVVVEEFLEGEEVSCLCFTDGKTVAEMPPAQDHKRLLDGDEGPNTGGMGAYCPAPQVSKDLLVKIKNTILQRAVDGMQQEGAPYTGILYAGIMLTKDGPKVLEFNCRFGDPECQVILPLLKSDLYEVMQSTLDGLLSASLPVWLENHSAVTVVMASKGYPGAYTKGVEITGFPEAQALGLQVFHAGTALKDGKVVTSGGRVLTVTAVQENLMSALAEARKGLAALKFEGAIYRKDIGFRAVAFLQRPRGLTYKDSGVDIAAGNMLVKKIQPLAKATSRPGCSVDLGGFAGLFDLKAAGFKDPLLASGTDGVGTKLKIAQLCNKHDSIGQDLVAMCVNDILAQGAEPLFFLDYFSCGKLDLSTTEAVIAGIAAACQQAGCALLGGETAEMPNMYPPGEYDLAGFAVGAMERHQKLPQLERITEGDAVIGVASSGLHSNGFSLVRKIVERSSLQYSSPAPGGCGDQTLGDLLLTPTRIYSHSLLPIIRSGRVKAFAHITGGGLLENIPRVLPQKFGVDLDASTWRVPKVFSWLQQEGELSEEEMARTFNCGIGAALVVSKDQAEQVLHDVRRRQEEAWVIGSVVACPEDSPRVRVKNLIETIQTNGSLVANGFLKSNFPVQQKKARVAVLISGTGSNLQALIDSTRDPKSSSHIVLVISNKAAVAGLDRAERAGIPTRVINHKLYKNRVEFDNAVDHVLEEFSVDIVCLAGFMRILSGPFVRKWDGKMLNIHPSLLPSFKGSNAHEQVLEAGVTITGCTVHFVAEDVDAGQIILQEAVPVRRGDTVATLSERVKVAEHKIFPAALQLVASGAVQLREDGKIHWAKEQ

[4] = in vivo; cited from earlier work
[5] = mouse, in vivo; cited from earlier work
[6] = target: thymidylate synthase (TS) (Homo sapiens, UniProt P04818); conditions: cited from earlier work
FRα = FRα (Homo sapiens, UniProt P15328); assay: FRα binding affinity relative to folic acid; conditions: folic acid set to 1
[7] = system: R2 CHO cells (hRFC- and FR-null); assay: Growth inhibition of hRFC- and FR-null R2 CHO cells; assay type: cell-based, Chinese hamster; conditions: Cricetulus griseus, RPMI1640/10% dialyzed fetal bovine serum, mean of 2-3 experiments
[8] = system: PC43-10 cells (hRFC-expressing Chinese hamster ovary); assay: Growth inhibition of hRFC-expressing PC43-10 CHO cells; assay type: cell-based
GARFTase = target: T2, GARFTase (Homo sapiens, UniProt P22102); assay: In situ GARFTase assay (14C-glycine incorporation into formyl glycinamide ribonucleotide); assay type: cell-based; conditions: mean IC50, SEM in parentheses
T2 construct: In the in situ GARFTase assay, incorporation of ^14C-glycine into formyl glycinamide ribonucleotide was measured; endogenous in cells
T2 sequence (P22102 1-1010): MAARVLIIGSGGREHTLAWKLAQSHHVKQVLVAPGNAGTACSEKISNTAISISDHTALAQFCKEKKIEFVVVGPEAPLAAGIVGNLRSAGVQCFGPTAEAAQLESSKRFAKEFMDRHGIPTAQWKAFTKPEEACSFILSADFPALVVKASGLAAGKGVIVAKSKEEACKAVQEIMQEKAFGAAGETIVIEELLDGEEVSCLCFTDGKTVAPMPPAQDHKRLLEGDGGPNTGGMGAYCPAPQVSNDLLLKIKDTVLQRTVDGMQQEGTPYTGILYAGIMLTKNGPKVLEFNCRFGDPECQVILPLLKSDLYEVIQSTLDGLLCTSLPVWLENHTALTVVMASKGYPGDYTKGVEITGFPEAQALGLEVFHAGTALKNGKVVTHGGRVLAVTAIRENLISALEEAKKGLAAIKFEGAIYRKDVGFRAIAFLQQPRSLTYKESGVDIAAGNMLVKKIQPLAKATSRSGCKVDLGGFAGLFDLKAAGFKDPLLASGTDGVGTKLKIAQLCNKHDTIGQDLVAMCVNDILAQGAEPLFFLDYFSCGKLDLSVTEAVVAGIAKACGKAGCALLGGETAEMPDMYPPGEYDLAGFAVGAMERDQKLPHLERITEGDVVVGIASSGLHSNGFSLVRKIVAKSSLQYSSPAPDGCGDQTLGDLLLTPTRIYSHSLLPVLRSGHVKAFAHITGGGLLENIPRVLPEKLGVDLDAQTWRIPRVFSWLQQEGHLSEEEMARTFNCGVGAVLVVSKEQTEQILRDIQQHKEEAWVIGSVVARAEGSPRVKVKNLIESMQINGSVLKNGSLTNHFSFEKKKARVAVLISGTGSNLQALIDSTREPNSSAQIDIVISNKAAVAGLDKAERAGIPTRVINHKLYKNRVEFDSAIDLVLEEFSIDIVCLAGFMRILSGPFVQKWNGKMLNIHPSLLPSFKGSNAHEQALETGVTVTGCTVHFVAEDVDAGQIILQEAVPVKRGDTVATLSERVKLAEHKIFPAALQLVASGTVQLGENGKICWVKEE

[9] = system: RT16 cells (hFRα-expressing Chinese hamster ovary); assay: Growth inhibition of FR-expressing RT16 CHO cells, with or without folic acid; assay type: cell-based; conditions: for IC50: Cricetulus griseus, RT16
[10] = folate-free RPMI1640/10% dialyzed FBS, 25 nM leucovorin
[11] = Homo sapiens, RPMI1640/10% dialyzed fetal bovine serum, without folic acid, read-out: Growth inhibition (IC50, nM) hRFC/FRα KB

Chain of thymidylate synthase (TS) (P04818 whole entry, species assumed): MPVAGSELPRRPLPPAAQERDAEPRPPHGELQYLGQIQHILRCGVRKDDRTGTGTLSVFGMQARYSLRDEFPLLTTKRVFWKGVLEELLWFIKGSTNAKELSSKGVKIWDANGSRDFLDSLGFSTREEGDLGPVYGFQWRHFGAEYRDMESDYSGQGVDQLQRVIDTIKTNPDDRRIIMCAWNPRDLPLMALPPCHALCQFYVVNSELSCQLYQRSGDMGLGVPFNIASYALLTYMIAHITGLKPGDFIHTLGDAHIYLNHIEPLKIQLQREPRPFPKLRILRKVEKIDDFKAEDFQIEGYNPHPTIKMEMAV
Chain of FRα (P15328 25-234): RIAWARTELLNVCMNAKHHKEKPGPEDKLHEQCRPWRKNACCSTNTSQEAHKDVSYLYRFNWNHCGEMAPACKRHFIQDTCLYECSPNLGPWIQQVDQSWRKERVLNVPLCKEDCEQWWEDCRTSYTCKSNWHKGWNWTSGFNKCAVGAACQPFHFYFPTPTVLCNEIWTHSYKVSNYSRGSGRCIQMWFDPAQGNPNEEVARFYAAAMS

SMILES: CN(Cc1cnc2nc(N)nc(N)c2n1)c1ccc(C(=O)N[C@@H](CCC(=O)O)C(=O)O)cc1 [Methotrexate, methotrexate]
IC50 [1, 10]: > 1000 nM

SMILES: Cc1nc2ccc3ccc(CNc4ccc5c(c4)CN([C@@H](CCC(=O)O)C(=O)O)C5=O)cc3c2c(=O)[nH]1 [GW1843U89, reference compound]
IC50 ([2]; RPMI1640/10% dialyzed fetal bovine serum, without folic acid, read-out: Growth inhibition (IC50, nM) hRFC/FRα KB): 5.8 nM
IC50 ([2]; co-treatment with folic acid (200 nM), read-out: Growth inhibition (IC50, nM) hRFC/FRα KB (+FA)): 32 nM

SMILES: Nc1nc2c(c(=O)[nH]1)C[C@@H](CCc1ccc(C(=O)N[C@@H](CCC(=O)O)C(=O)O)cc1)CN2 [Lometrexol, lometrexol, reference compound]
IC50 [1]: > 1000 nM
IC50 [3]: 780 nM
Toxicity in phase 1 studies [4]: severe myelosupression

SMILES: Nc1nc2[nH]c(CCCCc3ccc(C(=O)N[C@@H](CCC(=O)O)C(=O)O)o3)cc2c(=O)[nH]1 [AAG154489, (S)-2-({5-[4-(2-amino-4-oxo-4,7-dihydro-3H-pyrrolo[2,3-d]pyrimidin-6-yl)-butyl]-furan-2-carbonyl}-amino)-pentanedioic acid]
IC50 [2, 11]: 0.3 nM

SMILES: C#CCN(c1ccc(C(=O)N[C@@H](CCC(=O)N[C@H](CCC(=O)O)C(=O)O)C(=O)O)cc1)[C@H]1CCc2cc3nc(CO)[nH]c(=O)c3cc21 [BGC945]
Toxicity to normal tissues in mice [5]: no toxicity to normal tissues
Inhibition of thymidylate synthase (TS) within cells [6]: potently inhibit

melting point: 196 to 197 °C
SMILES: Nc1nc2[nH]c(CCC#Cc3ccc(C(=O)N[C@@H](CCC(=O)O)C(=O)O)s3)cc2c(=O)[nH]1 [AAG154468, (S)-2-({5-[4-(2-amino-4-oxo-4,7-dihydro-3H-pyrrolo[2,3-d]pyrimidin-6-yl)-but-1-ynyl]-thiophene-2-carbonyl}-amino)-pentanedioic acid]
IC50 [2, 11]: 122 nM

SMILES: Cc1nc2ccc(CN(C)c3ccc(C(=O)N[C@@H](CCC(=O)O)C(=O)O)s3)cc2c(=O)[nH]1 [Raltitrexed, raltitrexed, reference compound]
IC50 [1, 10]: 604 ± 53.6 nM

FRα binding affinity compared to folic acid (FRα): very high binding affinities
IC50 [3]: 3310 nM
IC50 (GARFTase): 7.65 nM
SMILES: Nc1nc2[nH]c(CCCCCc3ccc(C(=O)N[C@@H](CCC(=O)O)C(=O)O)s3)cc2c(=O)[nH]1 [AAG154360, (S)-2-({5-[5-(2-amino-4-oxo-4,7-dihydro-3H-pyrrolo[2,3-d]pyrimidin-6-yl)-pentyl]-thiophene-2-carbonyl}-amino)-pentanedioic acid]
IC50 [2, 11]: 3.4 nM
IC50 ([2]; Homo sapiens, co-treatment with folic acid (200 nM), read-out: Growth inhibition (IC50, nM) hRFC/FRα KB (+FA)): > 1000 nM
Effect of folic acid co-treatment on growth inhibition of KB cells ([2]; folic acid 200 nM): completely reversed growth inhibition
IC50 [7]: > 1000 nM
IC50 ([8]; Cricetulus griseus, PC43-10, RPMI1640/10% dialyzed fetal bovine serum, mean of 2-3 experiments, read-out: Growth inhibition (IC50, nM) hRFC PC43-10): > 1000 nM
Growth inhibition of hRFC-expressing PC43-10 cells (in words) ([8]; only RFC): Neither AAG154353 and AAG154360 showed appreciable growth inhibition
IC50 ([9]; RPMI1640/10% dialyzed fetal bovine serum, without folic acid, read-out: Growth inhibition (IC50, nM) hFRα RT16): 2 nM
IC50 ([9]; in the presence of an elevated concentration of folic acid, read-out: Growth inhibition (IC50, nM) hFRα RT16 (+FA)): > 1000 nM
Growth inhibition / FR-targeted activity toward RT16 cells (in words) ([9]; cells expressing FRα): high level of FR-targeted activity

SMILES: Nc1nc2[nH]cc(CCc3ccc(C(=O)N[C@@H](CCC(=O)O)C(=O)O)cc3)c2c(=O)[nH]1 [Pemetrexed, pemetrexed, reference compound]
IC50 [1]: 150 ± 22.5 nM

SMILES: C#CCN(c1ccc(C(=O)N[C@@H](CCC(=O)N[C@H](CCC(=O)O)C(=O)O)C(=O)O)cc1)[C@H]1CCc2cc3nc(C)[nH]c(=O)c3cc21 [BGC638]
Inhibition of thymidylate synthase (TS) within cells [6]: potently inhibit

Source: US10000498B2, “Selective proton coupled folate transporter and folate receptor, and GARFTase inhibitor compounds and methods of using the same” (Duquesne University of the Holy Spirit, priority 2008, dated 2018)
